The values below come from patent publication US8703106B2, “Chlorine dioxide treatment for biological tissue” (priority 2009, dated 2014).

In one assay the test system is total bacteria in wounds. In words: Pig infected wound model, delivery methods (Example 4). Conditions: Day 2, 400 ppm chlorine dioxide over two hours, versus moist controls. The assay is classed as in vivo. From the text: (§1) The test animal was a pig (n=1). Pigs are commonly used as models for wound healing in part because pig skin shares many characteristics with human skin. The porcine model is considered to be an excellent tool for the evaluation of candidate agents intended for use in human wounds.
(§2) On Day 0, the pig was anesthetized and sixteen […] full-thickness wounds (eight per side) were created using a custom designed 2-cm trephine. Each wound was 2-cm in diameter. An epinephrine solution (1:10,000 dilution) was applied to the wounds on gauze sponges until hemostasis was complete (approximately 10 minutes). Each wound was then infected with a bacterial inoculum.
(§3) Three different bacteria, Pseudomonas aeruginosa, Fusobacterium sp., and coagulase-negative Staphylococci (CNS), were cultured and used to prepare inoculums for the wounds. On the morning of surgery, the bacterial cultures were washed with sterile saline and resuspended in saline to a final density of approximately 10^7 CFU/mL. This bacterial suspension was used to inoculate each wound.
(§4) Wounds were dressed with sterile Telfa gauze, and the infections allowed to mature to establish a bacterial biofilm condition. Telfa dressings were moistened with saline: the excess saline was removed by squeezing the Telfa dressings. The dressing was then secured in place with Transpore tape (3M, St. Paul, Minn.), As a secondary dressing, a blue absorbent pad was used to cover all of the wounds. The absorbent layer of the blue pad was placed against the skin for the first few days. If wounds looked too dry, the blue pad was changed with the occlusive side against the skin. A layer of a layer of elastic bandage was wrapped over the blue pad to prevent movement of the dressings underneath. All wound dressing were changed on Day 1.
(§5) On Day 2, wounds were treated with a chlorine dioxide composition using different delivery methods. In brief, wounds A2-A4 were treated with continuous irrigation. Treatment for wounds B2-B4 and C2-C4 was multiple, substantially contiguous episodes of contact with a substantially non-cytotoxic chlorine dioxide gel composition. Wounds D2-D4 were treated with intermittent irrigation using a manual irrigation device. A1, B1 and D1 were controls and were not treated with chlorine dioxide. C1 was manually treated with a chlorine dioxide solution.
(§6) Wounds A2-A4: Each wound was individually covered with an irrigation device, each having an inlet, port to supply a chlorine dioxide solution and an outlet port for egress of the chlorine, dioxide solution. […]
(§7) The pump was activated to achieve an initial flow rate of approximately 80-82 ml mm through each of the three irrigation chambers. Chlorine dioxide concentrations were measured at the outlets using a UV spectrophotometer. […]

The test system of a further assay is Pseudomonas in wounds. The assay is described as above. The assay is classed as in vivo. Conditions: Day 2, 400 ppm chlorine dioxide over two hours, versus moist controls.
Excerpt: as §1, §2, §3, §4, §5, §6, §7

Assay [1] is described as follows: Tooth whitening with multiple contiguous applications, Vita Classic Shade Guide (Example 7). More on the design: species or system human. The following applies: for ΔSVU, Average: average of five teeth; for ΔSVU: nominal 200 ppm (actual 155 ppm) NaCMC gel, pH 5.0, individual teeth A-E, baseline C4. From the text: This study was designed to assess the efficacy on tooth whitening of two different regimens of multiple, contiguous applications of a 200 ppm chlorine dioxide gel. Five human extracted teeth (molars) were used in this study. Each tooth was sectioned twice: first at the tooth's cemento-enamel junction to remove the root portion of the tooth; then sectioned mesio-distally to separate the tooth into two, separate buccal and lingual halves. […] The sectioned teeth were then stained in concentrated black tea (cooled to room temperature after brewing) until each tooth accumulated enough stain to be visually graded as “C4” (hut no lighter than “A4”) per the Vita Classic Shade Vision Guide.
After staining, the cut sides of each tooth were sealed with an acrylic polymer (i.e. acrylic-based nail polish). The tooth was then “split” or functionally “divided” into a left and right sides (the tooth was not physically split). To create “dividing line,” a narrow channel was first created down the center of the tooth (running from the occlusal to the gingival or cervical portion of the tooth) using a narrow tungsten carbide or diamond tip dental bur, thereby creating an approximately 0.5 to 1.5-mm deep by 1 to 1.5-mm wide channel on either the buccal or lingual enamel surface of the tooth segment. The channel was etched carefully with a 34-40% phosphoric acid dental etching gel preparation (being careful to confine the gel only to the enamel within the prepared channel). The etching gel was then removed by water rinsing, the Stir face was dried, and a thin, narrow band of enamel-dentin adhesive was then applied carefully only to the enamel within the narrow channel. The material was allowed to dry in ambient air for 1 minute then carefully dried with a gentle stream of compressed air for an additional 10 seconds. The enamel-dentin adhesive was subsequently cured by exposure to a visible light dental curing unit using actinic blue light at an approximate peak wavelength of 470 nm for multiple, 20 second curing increments. In order to fill in the channel and gradually build a “wall” or harrier to separate the left and right half of the lingual surface of the tooth, a thin, narrow layer or band of composite resin dental restorative material was added in several steps and cured with the dental visible blue-light curing unit.
The wall that was built up on each tooth prevents whitening agent applied on the left side of the tooth to migrate into the whitening agent that was applied on the right side of the tooth, and visa versa. In this way, it is possible to compare two different treatment regimens on the same tooth, thereby minimizing the biological diversity among different teeth that may affect whitening efficacy.
Two treatment regimens were tested, both using a nominal 200 ppm chlorine dioxide gel comprising sodium carboxymethylcellulose (NaCMC). The actual concentration of chlorine dioxide was measured and found to be 155 ppm; pH of the composition was 5.0. The general treatment protocol is as follows. […] The 60 ml syringe was used to store the gel during the assay, and for dispensing gel into a 10 ml plastic syringe. The gel in the 10 ml syringe was then dispensed directly onto the tooth section enamel surfaces as follows. At time zero, about 1 to 1.5 ml gel was dispensed onto the enamel surface of each tooth segment attached to the glass microscope slide. The thickness of the resulting gel layer was about 1.5 to 3.0 mm in depth. After dispensing the gel onto the tooth segments, the glass slide was placed in a plastic zippered bag, containing small strips of wet paper towel within the bag to maintain 100% humidity in the bag. The paper towel strips were positioned to eliminate any contact of the plastic bag with the tooth and gel surfaces.
Upon conclusion of a contact epidose, the glass slide was removed from the plastic bag, and the gel was carefully removed with an extra soft bristle toothbrush and a gentle stream of running tap water. […]

Where [2] appears, read: 30 minutes total exposure, Left: 2 × 15 minutes.
The mark [3] stands for this setting: 30 minutes total exposure, Right: 4 × 7.5 minutes.
Setting [4] is: 60 minutes total exposure, Left: 4 × 15 minutes.
Setting [5] is: 60 minutes total exposure, Right: 8 × 7.5 minutes.

Values joined by “and” are separate entries in the source; they are usually repeats but may differ in a detail not shown here. Equal values may be shown once.

With `[O][Cl+][O-]` [ClO2, chlorine dioxide], the total bacteria reduction with total bacteria in wounds is recorded as 1-2 logs. The “reduction of Pseudomonas” value with Pseudomonas in wounds is reported as no less than 3 logs. Also, the “ΔSVU, Average” value in assay [1] (setting [2]) was determined as 11.4 SVU; in assay [1] (setting [3]) it was 12.6 SVU; in assay [1] (setting [4]) it was 11.8 SVU; in assay [1] (setting [5]), 13.6 SVU. The ΔSVU in assay [1] (setting [2]) was 12 SVU (3×) and 10 SVU and 11 SVU; in assay [1] (setting [3]) it was 15 SVU and 12 SVU (4×); in assay [1] (setting [4]), 12 SVU (4×) and 11 SVU; in assay [1] (setting [5]) it was 15 SVU (2×) and 14 SVU and 12 SVU (2×). For the same molecule, the “improvement of tooth whitening, four applications compared to two applications” value in assay [1] (nominal dosage 6000 ppm-min (30 minutes × 200 ppm)) is “about 10%”. Further, the “improvement of tooth whitening, eight applications over four applications” value in assay [1] (nominal dosage 12,000 ppm-min) is given as “about 15%”.
